Reference: PMC8567202, “Phosphoinositide-binding activity of Smad2 is essential for its function in TGF-β signaling” (The Journal of Biological Chemistry, 2021)

Experiments:
Assay type in all cases: cell-based
HeLa cells [1] = experiment: TIRF imaging of PM localization of EGFP-Smad2; details: HeLa cells, 10 ng/ml TGF-β, SB-431542 10 μM for 36 h where used
Protocol: (§1) Figure 4 Quantitative imaging analyses of spatiotemporal dynamics of Smad2.A, TIRF images of mouse EGFP-Smad2-WT transfected into HeLa cells whose endogenous Smad2 is suppressed by siRNA. Images were taken before and 5 min after TGF-β stimulation (10 ng/ml) with and without PI(4,5)P2 depletion. A pseudo-coloring scheme was used with orange and blue representing the highest and the lowest intensity, respectively. B, kinetics of TGF-β stimulated (10 ng/ml) PM localization of EGFP-Smad2-WT (blue), -K420A (green), and -W422A (orange) transfected into HeLa cells the endogenous Smad2 of which was suppressed by siRNA. For EGFP-Smad2-WT, the effect of PI(4,5)P2 depletion (black) and TβRI inhibition by SB-431542 (10 μM for 36 h) (red) were measured. Data points indicate average ±S.D. (n = 10 cells). C, spatially resolved PM PI(4,5)P2 concentration ([PI(4,5)P2]) profiles calculated from two-channel cross-sectional images of HeLa cells (before and 5 min after 10 ng/ml TGF-β stimulation and after PI(4,5)P2 depletion). Each cell is a representative of more than ten cells analyzed. Spatially averaged [PI(4,5)P2] values for each cell type are shown. […] E, time courses of the half-life of colocalization for SNAP-TMR-labeled TβRI and EGFP-Smad2 determined by dual color single-molecule tracking analysis. […] For EGFP-Smad2-WT, the effect of PI(4,5)P2 depletion (purple) was measured. […]

TβRI = experiment: Dual color single-molecule tracking, TβRI and EGFP-PLCδ-PH; details: HeLa cells
HeLa cells [2] = experiment: Ratiometric PI(4,5)P2 imaging; details: 10 ng/ml TGF-β
Protocol: as §1

NC(=O)c1ccc(-c2nc(-c3ccc4c(c3)OCO4)c(-c3ccccn3)[nH]2)cc1 [SB-431542, reference compound]
PM residence / dissociation of Smad2 (HeLa cells [1]): greatly elongated the PM residence of Smad2

EGFP-phospholipase Cδ-pleckstrin homology domain [EGFP-PLCδ-PH]
time of maximal dwell time of TβRI-PLCδ-PH complex after TGF-β stimulation (TβRI; 10 ng/ml TGF-β, n = 10 cells): 5 min | colocalization of TMR-SNAP-TβRI and EGFP-PLCδ-PH after PI(4,5)P2 depletion (TβRI; before and after TGF-β stimulation): eliminated colocalization

TGF-β: TGF-β1 was purchased from Millipore sigma (Cat no. T7039-2UG)
effect on PM PI(4,5)P2 distribution and spatially averaged concentration (HeLa cells [2]): neither spatiotemporal distribution of PI(4,5)P2 nor the spatially averaged PI(4,5)P2 concentration was altered
